# Test results as given in US9186390B2, “Methods and uses of TIE2 binding and/or activating agents” (Sunnybrook Health Sciences Center, priority 2010, dated 2015).
# “Also recorded” adds a separate entry of the source.
# System: AT derm mice (pTek-tTA:pTetOS-Tek)
# Experiment: Atopic dermatitis (AT derm) transgenic mouse model and wild-type littermates, 30-day Vasculotide treatment
# Assay type: in vivo, CD1 mice
# From the text: Briefly, construction of the driver transgene, pTek-tTA, and the responder transgenes, pTetOS-Tek, pTetos-Ang1, and pTetos-Ang2 have been described previously. All transgenic lines were maintained and genotyped as previously described (Voskas et al. (2005) Am. J. Pathol. 166(3):843-855, Ward et al. (2004) Am. J. Pathol. 165(3):889-899, Bureau et al. (2006) Am. J. Physiol. Heart Circ. Physiol. 291(2):H948-965). Males were housed with a single female for 14 to 20 days and then separated into individual cages. CD1 mice (an outbred mouse line) were maintained in a barrier facility. All adult mice used in these studies were 2 to 6 months old.
# Mouse skin tissue was fixed in 4% paraformaldehyde (Sigma, St. Louis, Mo.) for 16 hours at 4 degrees Celsius, and transferred to 70% ethanol. Tissues were subsequently paraffin embedded and sectioned at 4 μM on SuperFrost glass slides. Tissue slides were stained for hematoxylin and eosin using standard techniques. For immunohistochemistry, anti-E-Selectin (rat; Pharmingen, La Jolla, Calif.), anti-VCAM1 (rat; Pharmingen), anti-ICAM1 (Hamster; Pharmingen, La Jolla, Calif.), primary antibodies were detected using biotinylated secondary antibodies as described in the Vectastain Elite ABC kit (Vector Laboratories, Burlingame, Calif.). Slides were processed and counterstained with methyl green using standard techniques. Slides were analyzed and photos were processed using a Leica compound light microscope coupled to a Leica DFC300FX camera (Wetzlar, Germany). Skin tissue was taken (biopsy) at day 0, prior to initiation of treatment and at 30 days. Gross phenotypic examination was conducted and mice were photographed in a standard format using a Digital Canon Eos Rebel.
# Blood was collected from all mice on day 0 (prior to treatment) and day 30 (after 30 days of treatment). On day 0, approximately 50 μl was collected via tail vein puncture into a lithium heparin micro tube. Day 30 blood was collected via cardiac puncture into a lithium heparin micro tube. Both blood samples were prepared for storage and subsequent analysis using Phosflow Lyse/Fix Buffer (BD Biosciences, Franklin Lakes, N.J.), according to manufacturers instructions. Cells were stained for IgE versus free FITC and characteristic populations of basophils and eosinophils were identified.
# Normal and double transgenic (pTek-tTA:pTetOS-Tek) CD1 mice were injected intra peritoneally with either sterile PBS, pH 7.4 (vehicle) or Vasculotide (40 μg/kg) every three days for the period of 30 days. Mice were observed closely during this period for phenotypic resolution and/or any potential ill effects.
# Plasma was collected in lithium/heparin microtubes from all mice following 30 days of treatment with Vasculotide or vehicle. Plasma was diluted 1:8 in sample diluent (BD Biosciences, Franklin Lakes, N.J.). A multiplex analysis of 12 different mouse cytokines was examined according to manufacturer's instructions. Analysis and cytokine/chemokine quantification was performed using the manufacturers FCAP software package (BD Biosciences, Franklin Lakes, N.J.).
# Blood was collected from mice as previously described. Separated plasma was diluted 1:4 in calibrator diluent according to manufacturer's specifications (R&D Biosystems, Minneapolis, Minn. USA). All aspects of the assay were conducted according to manufacturer's directions. Quantification of plasma eotaxin concentrations was performed by linear regression analysis from assessment of defined amounts of eotaxin standard.
# [1] = AT derm and wild-type mice, 30 days treatment
# [2] = AT derm mice, skin and underlying muscle, 40 μg/kg every 3 days for 30 days
# [3] = wild-type (or single transgenic) mice, 30 days, p=0.0027
substance,measurement,setting,value
"Vasculotide: Modified T7 peptide (CHHHRHSF, SEQ ID NO:2) conjugated to 10 kDa tetrameric polyethylene glycol-maleimide; Tie2 binding peptide mimetic",body weight change during 30-day treatment,"40 μg/kg every 3 days for 30 days, vs PBS",no statistically significant alteration; also recorded: no statistically detectable alteration
same,plasma eotaxin levels (ELISA),"AT Derm mice vs PBS treated AT Derm mice, p=0.0208",statistically significant decrease
same,basophil numbers in peripheral blood (FACS),[1],marked reduction; also recorded: Decreased numbers
same,eosinophil numbers in peripheral blood (FACS),[1],marked reduction; also recorded: Decreased numbers
same,number of granulocytes in the bone marrow,"AT derm and wild-type mice, treated or untreated",unchanged
same,"gross phenotype: erythema, micro-haemorrhages of the ears, scaly plaque formation on the tail","AT derm mice (moderate or severe), 40 μg/kg every 3 days for 30 days",complete or almost complete resolution; also recorded: Gross phenotypic improvement
same,plasma IL-1β (cytometric bead array),"AT derm mice vs PBS-treated AT derm mice, 30 days, p=0.0492",reduction
same,erythema after the third dose (9 days),"AT derm mice, 40 μg/kg every three days",reduction in erythema
same,epidermal hyperplasia and infiltration of leukocytes (H&E staining of skin),"AT derm mice, 30 days treatment vs PBS",dramatic reduction; also recorded: marked reduction
same,E-selectin expression (immunohistochemistry),[2],very low or absent levels of positive staining; also recorded: dramatic reduction
same,ICAM1 expression (immunohistochemistry),[2],very low or absent levels of positive staining; also recorded: dramatic reduction
same,VCAM1 expression (immunohistochemistry),[2],very low or absent levels of positive staining; also recorded: dramatic reduction
same,neutrophils in peripheral blood (FACS),"control and AT-Derm mice, 30 days treatment",No effects
same,plasma IL-5 (cytometric bead array),[3],statistically significant decrease
same,plasma IL-13 (cytometric bead array),[3],statistically significant decrease
same,plasma MIP1b (cytometric bead array),"wild-type (or single transgenic) mice, 30 days, p=0.003",statistically significant decrease
same,plasma IL-9 (cytometric bead array),"wild-type (or single transgenic) mice, 30 days, p=0.0079",statistically significant decrease
same,plasma MCP1 (cytometric bead array),"wild-type (or single transgenic) mice, 30 days, p=0.0116",statistically significant decrease
same,plasma MIG (cytometric bead array),"wild-type (or single transgenic) mice, 30 days, p=0.0117",statistically significant decrease
same,plasma TNF-α (cytometric bead array),"wild-type (or single transgenic) mice, 30 days, p=0.0309",statistically significant decrease
same,plasma MIP1a (cytometric bead array),"wild-type (or single transgenic) mice, 30 days, p=0.0473",statistically significant decrease
same,plasma IL-17 (cytometric bead array),"wild-type (or single transgenic) mice, 30 days, p=0.0492",statistically significant decrease
same,plasma IL-12/IL-23 p40 (cytometric bead array),"wild-type (or single transgenic) mice, 30 days, p=0.0494",statistically significant decrease
same,overt effects / appearance of single transgenic or wild-type littermates,"wild-type or single transgenic mice, 40 μg/kg every three days",no overt effects; also recorded: indistinguishable from PBS-treated
